# Laboratory results published in ChEMBL document CHEMBL4673275, “Synthesis and biological activity of (±)-7,3',4'-trihydroxyhomoisoflavan and its analogs” (Bioorg Med Chem Lett, 2021).
# The source made the active and inactive calls. No cut-off for these calls is given here.
# What was measured:
# PC-12 [1] = assay: Induction of neurite outgrowth in rat PC-12 cells at 1 to 30 uM incubated for 48 hrs; assay type: functional, cell-based; settings: dose 1-30 µM
# PC-12 [2] = assay: Induction of neurite outgrowth in rat PC-12 cells assessed as cell elongation at 30 uM incubated for 48 hrs in presence of NGF; assay type: functional, cell-based
# PC-12 [3] = assay: Induction of neurite outgrowth in rat PC-12 cells at 1 to 30 uM incubated for 48 hrs in presence of NGF; assay type: functional, cell-based; settings: dose 1-30 µM
# [4] = target: Acetylcholinesterase (Homo sapiens) (UniProt P22303); assay: Inhibition of AChE (unknown origin) at 1 to 25 uM; settings: dose 1-25 µM
# Chain of Acetylcholinesterase (Homo sapiens) (P22303 whole entry): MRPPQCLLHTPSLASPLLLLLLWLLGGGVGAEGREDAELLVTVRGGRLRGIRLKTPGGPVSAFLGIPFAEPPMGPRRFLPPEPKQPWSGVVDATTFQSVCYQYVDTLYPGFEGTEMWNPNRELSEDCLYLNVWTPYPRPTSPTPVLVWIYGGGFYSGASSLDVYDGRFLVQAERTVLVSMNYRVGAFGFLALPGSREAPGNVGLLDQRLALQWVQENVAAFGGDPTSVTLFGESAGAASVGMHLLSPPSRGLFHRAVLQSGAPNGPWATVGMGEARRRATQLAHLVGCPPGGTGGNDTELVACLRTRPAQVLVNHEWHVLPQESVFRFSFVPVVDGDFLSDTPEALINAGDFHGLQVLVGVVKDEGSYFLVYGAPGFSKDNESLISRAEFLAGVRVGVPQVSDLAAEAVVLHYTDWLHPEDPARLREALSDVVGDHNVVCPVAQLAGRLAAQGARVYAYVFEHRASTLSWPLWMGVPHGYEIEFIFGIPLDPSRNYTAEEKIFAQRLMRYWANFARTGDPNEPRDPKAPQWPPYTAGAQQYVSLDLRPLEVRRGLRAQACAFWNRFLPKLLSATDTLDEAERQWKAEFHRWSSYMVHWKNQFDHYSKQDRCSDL
Structure (SMILES),Activity (PC-12 [1]),Activity (PC-12 [2]),Activity (PC-12 [3]),inhibition [4]
Oc1ccc(CC2COc3ccccc3C2)cc1 (stereo not drawn),inactive,Active,Active,inactive
Oc1ccc(CC2COc3ccccc3C2)cc1O (stereo not drawn),inactive,Active,Active,Active
O=c1c(Cc2ccc(O)c(O)c2)coc2ccccc12,inactive,Active,Active,Active
O=C(O)/C=C/c1ccc(O)c(O)c1,,,,Active
CN(C)C(=O)Oc1cccc([N+](C)(C)C)c1,,,,Active
Oc1ccc2c(c1)OCC(Cc1ccc(O)c(O)c1)C2 (racemic),inactive,Active,Active,Active
